System: SEM cells
Experiment: cell viability relative to DMSO control; higher = less cytotoxic
Conditions: 48 h
Method in brief: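 In 1536-well plates, 5 μl of leukemia cells were seeded per well: 500 cells/well for NOMO1 or SEM and 1000 cells/well for P12-Ichikawa. Each line had first been adapted for at least four passages in each medium. Library compounds in DMSO were pin-dosed at 11 threefold concentrations between 47 μM and 0.79 nM, and CellTiter-Glo One luminescence was read after 48 h at 37°C. Viability is a per-plate percentage relative to DMSO wells, with cell-free wells as background.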

[1] = HPLM + 10% dialyzed FBS, 0.000781 µM
[2] = HPLM + 10% dialyzed FBS, 0.00234 µM
[3] = HPLM + 10% dialyzed FBS, 0.00702 µM
[4] = HPLM + 10% dialyzed FBS, 0.0211 µM
[5] = HPLM + 10% dialyzed FBS, 0.0632 µM
[6] = HPLM + 10% dialyzed FBS, 0.19 µM
[7] = HPLM + 10% dialyzed FBS, 0.569 µM
[8] = HPLM + 10% dialyzed FBS, 1.71 µM
[9] = HPLM + 10% dialyzed FBS, 5.12 µM
[10] = HPLM + 10% dialyzed FBS, 15.4 µM
[11] = HPLM + 10% dialyzed FBS, 46.1 µM
[12] = RPMI 5 mM glucose + 10% FBS, 0.000781 µM
[13] = RPMI 5 mM glucose + 10% FBS, 0.00234 µM
[14] = RPMI 5 mM glucose + 10% FBS, 0.00702 µM
[15] = RPMI 5 mM glucose + 10% FBS, 0.0211 µM
[16] = RPMI 5 mM glucose + 10% FBS, 0.0632 µM
[17] = RPMI 5 mM glucose + 10% FBS, 0.19 µM
[18] = RPMI 5 mM glucose + 10% FBS, 0.569 µM
[19] = RPMI 5 mM glucose + 10% FBS, 1.71 µM
[20] = RPMI 5 mM glucose + 10% FBS, 5.12 µM
[21] = RPMI 5 mM glucose + 10% FBS, 15.4 µM
[22] = RPMI 5 mM glucose + 10% FBS, 46.1 µM
[23] = RPMI 5 mM glucose + 10% dialyzed FBS, 0.000781 µM
[24] = RPMI 5 mM glucose + 10% dialyzed FBS, 0.00234 µM
[25] = RPMI 5 mM glucose + 10% dialyzed FBS, 0.00702 µM
[26] = RPMI 5 mM glucose + 10% dialyzed FBS, 0.0211 µM
[27] = RPMI 5 mM glucose + 10% dialyzed FBS, 0.0632 µM
[28] = RPMI 5 mM glucose + 10% dialyzed FBS, 0.19 µM
[29] = RPMI 5 mM glucose + 10% dialyzed FBS, 0.569 µM
[30] = RPMI 5 mM glucose + 10% dialyzed FBS, 1.71 µM
[31] = RPMI 5 mM glucose + 10% dialyzed FBS, 5.12 µM
[32] = RPMI 5 mM glucose + 10% dialyzed FBS, 15.4 µM
[33] = RPMI 5 mM glucose + 10% dialyzed FBS, 46.1 µM

| Structure (SMILES) | cell viability [1] [%] | cell viability [2] [%] | cell viability [3] [%] | cell viability [4] [%] | cell viability [5] [%] | cell viability [6] [%] | cell viability [7] [%] | cell viability [8] [%] | cell viability [9] [%] | cell viability [10] [%] | cell viability [11] [%] | cell viability [12] [%] | cell viability [13] [%] | cell viability [14] [%] | cell viability [15] [%] | cell viability [16] [%] | cell viability [17] [%] | cell viability [18] [%] | cell viability [19] [%] | cell viability [20] [%] | cell viability [21] [%] | cell viability [22] [%] | cell viability [23] [%] | cell viability [24] [%] | cell viability [25] [%] | cell viability [26] [%] | cell viability [27] [%] | cell viability [28] [%] | cell viability [29] [%] | cell viability [30] [%] | cell viability [31] [%] | cell viability [32] [%] | cell viability [33] [%] |
| --- | --- | --- | --- | --- | --- | --- | --- | --- | --- | --- | --- | --- | --- | --- | --- | --- | --- | --- | --- | --- | --- | --- | --- | --- | --- | --- | --- | --- | --- | --- | --- | --- | --- |
| O=C(Nc1cc2cc[nH]c2cn1)c1ccccc1 | 87.7 | 95.6 | 90.4 | 104 | 85.6 | 102 | 109 | 104 | 18.5 | 4.59 | 2.37 | 75.6 | 89.4 | 92.4 | 90.8 | 92.8 | 106 | 104 | 90 | 4.38 | 2.43 | 1 | 85.4 | 95.1 | 98.7 | 98.8 | 96.8 | 102 | 112 | 117 | 6.2 | 5.18 | 2.59 |
| C[C@@H]1[C@H](O)[C@@H](C)/C=C/C=C/C=C/C=C/C=C/C=C/C=C/[C@H](O[C@@H]2O[C@H](C)[C@@H](O)[C@H](N)[C@@H]2O)C[C@@H]2O[C@](O)(C[C@@H](O)C[C@@H](O)[C@H](O)CC[C@@H](O)C[C@@H](O)CC(=O)O[C@H]1C)C[C@H](O)[C@H]2C(=O)O | 105 | 92.1 | 105 | 110 | 110 | 110 | 103 | 114 | 102 | 105 | 125 | 113 | 115 | 110 | 107 | 105 | 112 | 112 | 108 | 104 | 121 | 118 | 110 | 103 | 108 | 93.8 | 114 | 116 | 105 | 108 | 109 | 91.2 | 127 |
| NC/1=N/C2=C([NH]C=N2)C(=S)N1 | 110 | 57 | 106 | 115 | 117 | 114 | 108 | 117 | 113 | 110 | 24.2 | 114 | 81.5 | 117 | 105 | 119 | 114 | 102 | 103 | 102 | 108 | 16.1 | 95.1 | 81.6 | 103 | 118 | 113 | 103 | 81 | 37.7 | 29.6 | 33.5 | 9.21 |
| C[C@]1(c2nc3c(C(N)=O)cccc3[nH]2)CCCN1 | 63.8 | 74.1 | 75.9 | 89.1 | 78.3 | 81.3 | 74.5 | 90.6 | 87.2 | 80.3 | 63 | 81 | 62.7 | 68 | 88.8 | 83 | 87.4 | 89.7 | 85 | 98 | 98.1 | 59.8 | 68.5 | 63.7 | 64.9 | 87.2 | 71.9 | 79 | 84.5 | 75.6 | 76.7 | 76.7 | 51.5 |
| C/C=C(/C)C(=O)O[C@H]1C(C)=C[C@]23C(=O)[C@@H](C=C(CO)[C@@H](O)[C@]12O)[C@H]1[C@@H](C[C@H]3C)C1(C)C | 93.9 | 121 | 87.5 | 90 | 92.4 | 82.1 | 72 | 92.5 | 87.7 | 70.3 | 54.9 | 120 | 114 | 101 | 102 | 100 | 71.9 | 66.9 | 79.9 | 82.6 | 72.7 | 43.8 | 115 | 135 | 101 | 107 | 113 | 93.7 | 104 | 100 | 91.5 | 82.4 | 42.6 |
| CN[C@@H]1[C@H](O)[C@H](NC)[C@H]2O[C@@]3(O)C(=O)C[C@@H](C)O[C@H]3O[C@@H]2[C@H]1O | 119 | 125 | 122 | 123 | 121 | 120 | 118 | 122 | 113 | 115 | 109 | 120 | 110 | 126 | 117 | 115 | 113 | 123 | 110 | 104 | 104 | 104 |  |  |  |  |  |  |  |  |  |  |  |
| O=C(Nc1c(Cl)cncc1Cl)c1ccc(OC(F)F)c(OCC2CC2)c1 | 93.8 | 90.5 | 94.2 | 96.8 | 105 | 102 | 109 | 110 | 100 | 90.6 | 107 | 86.3 | 93.9 | 107 | 82 | 90.4 | 97.4 | 95.4 | 93.6 | 93.5 | 101 | 103 | 92.4 | 90.5 | 102 | 87.6 | 96.6 | 94.3 | 102 | 111 | 101 | 85.8 | 85.7 |
